Experimental data from patent US20240270762A1, “PENICILLIN-BINDING PROTEIN INHIBITORS” (priority 2021, published 2024).
≈ marks a conversion by molar mass, not a printed value.

How the values were obtained:
N. gonorrhoeae CDC-0197 = experiment: Liquid broth MIC in Fastidious broth; conditions: Neisseria gonorrhoeae, CDC0197, read-out: Minimum Inhibitory Concentration (MIC), N. gonorrhoeae CDC-0197
K. pneumoniae SI-117 = experiment: microbe, parasite or virus in culture; type: cell-based; conditions: Klebsiella pneumoniae, SI117, read-out: MIC K. pneumoniae SI-117
K. pneumoniae UMM = experiment: microbe, parasite or virus in culture; type: cell-based; conditions: Klebsiella pneumoniae, read-out: MIC K. pneumoniae UMM
N. gonorrhoeae MS11 = experiment: Liquid broth MIC in Fastidious broth; conditions: Neisseria gonorrhoeae, MS11, read-out: Minimum Inhibitory Concentration (MIC), N. gonorrhoeae MS11
N. gonorrhoeae WHO M = experiment: Liquid broth MIC in Fastidious broth; conditions: Neisseria gonorrhoeae, read-out: Minimum Inhibitory Concentration (MIC), N. gonorrhoeae WHO M
N. gonorrhoeae WHO L = experiment: Liquid broth MIC in Fastidious broth; conditions: Neisseria gonorrhoeae, read-out: Minimum Inhibitory Concentration (MIC), N. gonorrhoeae WHO L
Description: Liquid broth-based assays were used for antibacterial testing of PBP inhibitors in Neisseria gonorrhoeae. Briefly, cryo-preserved bacterial cultures of clinical strains were streaked for isolation on Chocolate Agar (72 g/L (2×) GC Agar Base (BD #228950) and 2% (2×) Hemoglobin was autoclaved at 121° C. for 20 minutes to sterilize. Once cooled to ˜50° C. the 2×GC Agar Base and 2× Hemoglobin solutions are combined and 1% IsoVitaleX Enrichment (BD #211876) was added to the solution). Strains were incubated at 36° C. and 5% CO2 to allow growth of colonies, 24 hours before inoculum preparation. 2-fold serial dilutions of test compounds were conducted in a 96 well plate with a final volume of 75 μL per well at 2-fold the final desired concentration in Fastidious broth (Remel #R07664). For preparation of assay inoculum, a direct suspension was prepared by aseptically swabbing 10-15 colonies from agar plates into culture tubes containing 2 mL of fresh sterile saline. After the dilution plates were set up, direct suspensions were then diluted in a cuvette containing sterile saline and the optical density was measured at 600 nm. Inocula were diluted such that 75 μL of this culture in Fastidious broth results in a starting bacterial concentration of 5×10^5 CFU/mL when added to the dilution plates. The plates were incubated for ˜24 hours at 36° C. and 5% CO2.

N. gonorrhoeae WHO K = experiment: Liquid broth MIC in Fastidious broth; conditions: Neisseria gonorrhoeae, read-out: Minimum Inhibitory Concentration (MIC), N. gonorrhoeae WHO K
A. baumannii ATCC 19606 = experiment: microbe, parasite or virus in culture; type: cell-based; conditions: Acinetobacter baumannii, ATCC19606, read-out: MIC, A. baumannii ATCC 19606
E. coli ATCC 25922 = experiment: microbe, parasite or virus in culture; type: cell-based; conditions: Escherichia coli, ATCC25922, read-out: MIC E. coli 25922
N. gonorrhoeae WHO Q = experiment: Liquid broth MIC in Fastidious broth; conditions: Neisseria gonorrhoeae, read-out: Minimum Inhibitory Concentration (MIC), N. gonorrhoeae WHO Q
P. aeruginosa ATCC 35151 = experiment: microbe, parasite or virus in culture; type: cell-based; conditions: Pseudomonas aeruginosa, ATCC35151, read-out: MIC P. aeruginosa ATCC 35151
[1] = molecular target: T1, PBP3 from Escherichia coli (K-12) (Escherichia coli, UniProt P0AD68); experiment: Bocillin-FL fluorescence polarization competition binding, E. coli PBP3
T1 construct: made in house
T1 sequence (P0AD68 1-577): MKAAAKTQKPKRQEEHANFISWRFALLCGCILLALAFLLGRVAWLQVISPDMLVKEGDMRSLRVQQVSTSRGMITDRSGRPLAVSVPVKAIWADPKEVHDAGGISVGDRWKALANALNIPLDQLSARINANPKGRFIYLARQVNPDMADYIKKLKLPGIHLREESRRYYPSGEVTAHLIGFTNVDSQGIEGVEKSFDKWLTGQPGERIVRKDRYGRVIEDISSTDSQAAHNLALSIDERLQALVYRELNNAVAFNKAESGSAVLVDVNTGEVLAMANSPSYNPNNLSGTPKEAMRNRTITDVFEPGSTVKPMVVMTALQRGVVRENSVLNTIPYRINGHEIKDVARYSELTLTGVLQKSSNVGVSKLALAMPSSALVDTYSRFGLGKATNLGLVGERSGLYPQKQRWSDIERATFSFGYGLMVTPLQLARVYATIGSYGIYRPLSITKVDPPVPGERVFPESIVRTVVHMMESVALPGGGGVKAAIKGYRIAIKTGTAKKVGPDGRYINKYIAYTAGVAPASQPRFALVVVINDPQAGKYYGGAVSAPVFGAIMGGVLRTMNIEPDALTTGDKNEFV
How it was run: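 Purified PBPs pre-incubated with inhibitor (E. coli PBP3 1.5 μM, 30 min; P. aeruginosa PBP3 0.75 μM, A. baumannii PBP1a 1 μM and PBP3 0.2 μM, 15 min), then Bocillin-FL 0.1 μM (0.05 μM for PBP1a) added; FP read up to 60 min. EC50 = concentration halving bound Bocillin-FL.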

E. coli AG100A = experiment: Broth microdilution MIC in CAMHB; type: cell-based; conditions: Escherichia coli, read-out: MIC E. coli AG100A
E. coli D22 = experiment: microbe, parasite or virus in culture; type: cell-based; conditions: Escherichia coli, D22, read-out: MIC E. coli D22
N. gonorrhoeae WHO Z = experiment: Liquid broth MIC in Fastidious broth; conditions: Neisseria gonorrhoeae, read-out: Minimum Inhibitory Concentration (MIC), N. gonorrhoeae WHO Z
[2] = tested on: N. gonorrhoeae ATCC 49226; experiment: Liquid broth MIC in Fastidious broth; conditions: Neisseria gonorrhoeae, ATCC49226, read-out: Minimum Inhibitory Concentration (MIC), N. gonorrhoeae ATCC 49226

Compound	MIC (N. gonorrhoeae CDC-0197) [µg/mL]	MIC (K. pneumoniae SI-117) [µg/mL]	MIC (K. pneumoniae UMM) [µg/mL]	MIC (N. gonorrhoeae MS11) [µg/mL]	MIC (N. gonorrhoeae WHO M) [µg/mL]	MIC (N. gonorrhoeae WHO L) [µg/mL]	MIC (N. gonorrhoeae WHO K) [µg/mL]	MIC (A. baumannii ATCC 19606) [µg/mL]	MIC (E. coli ATCC 25922) [µg/mL]	MIC (N. gonorrhoeae WHO Q) [µg/mL]	MIC (P. aeruginosa ATCC 35151) [µg/mL]	EC50 [1] [µM]	MIC (E. coli AG100A) [µg/mL]	MIC (E. coli D22) [µg/mL]	MIC (N. gonorrhoeae WHO Z) [µg/mL]	MIC [2] [µg/mL]
O=C(N[C@@H](C(=O)N[C@H]1Cc2cccc(C(=O)O)c2OB1O)c1ccc(P(=O)(O)O)cc1)c1ccc(C(F)(F)F)cn1 (single isomer, unassigned) [Example 193]	< 1	> 128	> 128	< 1	< 1	4 to 8 (≈ 6.74 to 13.5 µM)	1 to 2 (≈ 1.69 to 3.37 µM)	> 128	32 to 64 (≈ 53.9 to 108 µM)	1 to 2 (≈ 1.69 to 3.37 µM)	2 to 4 (≈ 3.37 to 6.74 µM)	< 10	8 to 16 (≈ 13.5 to 27 µM)	2 to 4 (≈ 3.37 to 6.74 µM)	< 1	< 1
O=C(O)c1cccc2c1OB(O)[C@@H](NC(=O)C(NC(=O)N1CCCC1=O)c1ccc(P(=O)(O)O)cc1)C2 (stereo partly drawn) [Example 57, (3R)-2-hydroxy-3-(2-(2-oxopyrrolidine-1-carboxamido)-2-(4-phosphonophenyl)acetamido)-3,4-dihydro-2H-benzo[e][1,2]oxaborinine-8-carboxylic acid]	< 1	> 128	32 to 64 (≈ 60.2 to 120 µM)	< 1	< 1	16 to 32 (≈ 30.1 to 60.2 µM)	4 to 8 (≈ 7.53 to 15.1 µM)	> 128	> 128	1 to 2 (≈ 1.88 to 3.76 µM)	2 to 4 (≈ 3.76 to 7.53 µM)	10 to 50	32 to 64 (≈ 60.2 to 120 µM)	8 to 16 (≈ 15.1 to 30.1 µM)	1 to 2 (≈ 1.88 to 3.76 µM)	< 1
O=C(O)c1cccc2c1OB(O)[C@@H](NC(=O)[C@H](NC(=O)c1ccn[nH]c1=O)c1ccc(P(=O)(O)O)cc1)C2 (single isomer, unassigned) [Example 178]	< 1	> 128	32 to 64 (≈ 59 to 118 µM)	< 1	< 1	1 to 2 (≈ 1.84 to 3.69 µM)	1 to 2 (≈ 1.84 to 3.69 µM)	32 to 64 (≈ 59 to 118 µM)	> 128	1 to 2 (≈ 1.84 to 3.69 µM)	< 1	< 10	32 to 64 (≈ 59 to 118 µM)	2 to 4 (≈ 3.69 to 7.38 µM)	< 1	< 1
CN1CCCN(C(=O)NC(C(=O)N[C@H]2Cc3cccc(C(=O)O)c3OB2O)c2ccc(P(=O)(O)O)cc2)C1=O (stereo partly drawn) [Example 38, (3R)-2-hydroxy-3-(2-(3-methyl-2-oxohexahydropyrimidine-1-carboxamido)-2-(4-phosphonophenyl)acetamido)-3,4-dihydro-2H-benzo[e][1,2]oxaborinine-8-carboxylic acid]	1 to 2 (≈ 1.78 to 3.57 µM)	> 128	> 128	1 to 2 (≈ 1.78 to 3.57 µM)	< 1	16 to 32 (≈ 28.6 to 57.1 µM)	4 to 8 (≈ 7.14 to 14.3 µM)	> 128	> 128	4 to 8 (≈ 7.14 to 14.3 µM)	2 to 4 (≈ 3.57 to 7.14 µM)	10 to 50	32 to 64 (≈ 57.1 to 114 µM)	8 to 16 (≈ 14.3 to 28.6 µM)	1 to 2 (≈ 1.78 to 3.57 µM)	1 to 2 (≈ 1.78 to 3.57 µM)
O=C1CC[C@H](C(=O)NC(C(=O)N[C@H]2Cc3cccc(C(=O)O)c3OB2O)c2ccc(P(=O)(O)O)cc2)N1 (stereo partly drawn) [Example 53, (3R)-2-hydroxy-3-(2-((R)-5-oxopyrrolidine-2-carboxamido)-2-(4-phosphonophenyl)acetamido)-3,4-dihydro-2H-benzo[e][1,2]oxaborinine-8-carboxylic acid]	4 to 8 (≈ 7.53 to 15.1 µM)	> 128	> 128	1 to 2 (≈ 1.88 to 3.76 µM)	1 to 2 (≈ 1.88 to 3.76 µM)	16 to 32 (≈ 30.1 to 60.2 µM)	16 to 32 (≈ 30.1 to 60.2 µM)	> 128	> 128	16 to 32 (≈ 30.1 to 60.2 µM)	8 to 16 (≈ 15.1 to 30.1 µM)	50 to 250	> 128	32 to 64 (≈ 60.2 to 120 µM)	16 to 32 (≈ 30.1 to 60.2 µM)	1 to 2 (≈ 1.88 to 3.76 µM)
